Measurements as given in ChEMBL document CHEMBL3751805, “Novel Tacrine-Benzofuran Hybrids as Potent Multitarget-Directed Ligands for the Treatment of Alzheimer's Disease: Design, Synthesis, Biological Evaluation, and X-ray Crystallography” (J Med Chem, 2016).
Active and inactive are the calls of the source. No cut-off for these calls is given here.

How the values were obtained:
Acetylcholinesterase [1] = molecular target: T1, Acetylcholinesterase (Homo sapiens, UniProt P22303)
Description: Inhibition of recombinant human AChE using acetylthiocholine iodide as substrate preincubated for 20 mins followed by substrate addition by Ellman's method

Cholinesterase = Cholinesterase (Homo sapiens, UniProt P06276)
Description: Inhibition of human serum BChE using butyrylthiocholine iodide as substrate preincubated for 20 mins followed by substrate addition by Ellman's method

[2] = molecular target: T2, Amyloid-beta precursor protein (Homo sapiens, UniProt P05067); details: at 10 µM
Description: Inhibition of HFIP pretreated Amyloid beta (1 to 42) (unknown origin) self-induced aggregation at 10 uM incubated for 24 hrs by Thioflavin T-based fluorometric assay

SH-SY5Y = test: Cytotoxicity against human SH-SY5Y cells assessed as reduction in cell viability at 3 to 30 uM after 48 hrs by MTT assay; format: cell-based
Beta-secretase 1 [3] = molecular target: T3, Beta-secretase 1 (Homo sapiens, UniProt P56817)
Description: Inhibition of recombinant human BACE-1 using M-2420 as substrate preincubated for 1 hr followed by substrate addition measured after 15 mins by FRET assay

[4] = molecular target: T2, Amyloid-beta precursor protein; test: Inhibition of Amyloid beta (1 to 42) (unknown origin) self-induced aggregation incubated for 24 hrs by Thioflavin T-based fluorometric assay
Beta-secretase 1 [5] = molecular target: T3, Beta-secretase 1; test: Inhibition of BACE-1 (unknown origin) using M-2420 as substrate preincubated for 1 hr followed by substrate addition measured after 15 mins by FRET assay
Acetylcholinesterase [6] = molecular target: T4, Acetylcholinesterase (Torpedo californica, UniProt P04058); test: Noncompetitive inhibition of Torpedo californica AChE using ATCh as substrate preincubated for 90 mins followed by substrate addition by potentiometric titration method; design: species or system Tetronarce californica
Acetylcholinesterase [7] = molecular target: T4, Acetylcholinesterase; test: Competitive inhibition of Torpedo californica AChE using ATCh as substrate preincubated for 90 mins followed by substrate addition by potentiometric titration method; design: species or system Tetronarce californica
Mus musculus [8] = format: toxicity, organism-based, ICR; details: in vivo, po, 30 mg/kg, 8 h
Acetylcholinesterase [9] = molecular target: T4, Acetylcholinesterase; test: Noncompetitive inhibition of Torpedo californica AChE using ATCh as substrate assessed as dissociation rate constant preincubated for 90 mins followed by substrate addition by potentiometric titration method; design: species or system Tetronarce californica
Mus musculus [10] = test: Hepatotoxicity in ICR mouse assessed as elevation in serum aspartate aminotransferase level dosed ig at equimolar dose of 30 mg/kg tacrine after 8 hrs by spectrophotometry analysis relative to control; format: toxicity, organism-based; details: in vivo, po
[11] = molecular target: Acetylcholinesterase (Torpedo californica) (UniProt P04058); details: Tetronarce californica
Description: Noncompetitive inhibition of Torpedo californica AChE using ATCh as substrate assessed as second order association constant preincubated for 90 mins followed by substrate addition by potentiometric titration method

Mus musculus [12] = test: Hepatotoxicity in ICR mouse assessed as serum alanine aminotransferase level dosed ig at equimolar dose of 30 mg/kg tacrine after 36 hrs by spectrophotometry analysis (reference value: 38.1 +/- 8.2 U/L); format: toxicity, organism-based; details: in vivo, po
Mus musculus [13] = format: toxicity, organism-based, ICR; details: in vivo, po, 30 mg/kg, 36 h
Acetylcholinesterase [14] = molecular target: T1, Acetylcholinesterase; test: Mixed-type inhibition of recombinant human AChE using acetylthiocholine iodide as substrate assessed as enzyme-substrate-inhibitor complex by Lineweaver-Burk double reciprocal plot method
[15] = molecular target: Acetylcholinesterase (Torpedo californica) (UniProt P04058); details: Tetronarce californica; 0.3 nM
[16] = molecular target: Acetylcholinesterase (Torpedo californica) (UniProt P04058); details: Tetronarce californica; remark: listed apart in the source
Description: Competitive inhibition of Torpedo californica AChE using ATCh as substrate assessed as second order association constant preincubated for 90 mins followed by substrate addition by potentiometric titration method

in vitro = details: human, SH-SY5Y cells
Description: Cytotoxicity against human SH-SY5Y cells assessed as cell viability at 30 uM after 48 hrs by MTT assay

Acetylcholinesterase [17] = molecular target: T4, Acetylcholinesterase; test: Competitive inhibition of Torpedo californica AChE using ATCh as substrate assessed as dissociation rate constant preincubated for 90 mins followed by substrate addition by potentiometric titration method; design: species or system Tetronarce californica
Mus musculus [18] = test: Hepatotoxicity in ICR mouse assessed as serum aspartate aminotransferase level dosed ig at equimolar dose of 30 mg/kg tacrine after 8 hrs by spectrophotometry analysis (reference value: 113.3 +/- 30 U/L); format: toxicity, organism-based; details: in vivo, po
Mus musculus [19] = test: Hepatotoxicity in ICR mouse assessed as serum aspartate aminotransferase level dosed ig at equimolar dose of 30 mg/kg tacrine after 22 hrs by spectrophotometry analysis (reference value: […] +/- 31.1 U/L); format: toxicity, organism-based; details: in vivo, po
[20] = molecular target: Acetylcholinesterase (Torpedo californica) (UniProt P04058); details: Tetronarce californica; 1 to 10 nM
Mus musculus [21] = test: Hepatotoxicity in ICR mouse assessed as serum alanine aminotransferase level dosed ig at equimolar dose of 30 mg/kg tacrine after 22 hrs by spectrophotometry analysis (reference value: 40.1 +/- 9.9 U/L); format: toxicity, organism-based; details: in vivo, po
Acetylcholinesterase [22] = molecular target: T1, Acetylcholinesterase; test: Mixed-type inhibition of recombinant human AChE using acetylthiocholine iodide as substrate assessed as enzyme-inhibitor complex by Lineweaver-Burk double reciprocal plot method
Mus musculus [23] = test: Hepatotoxicity in ICR mouse assessed as elevation in serum alanine aminotransferase level dosed ig at equimolar dose of 30 mg/kg tacrine after 8 hrs by spectrophotometry analysis relative to control; format: toxicity, organism-based; details: in vivo, po

T2 sequence (P05067 whole entry): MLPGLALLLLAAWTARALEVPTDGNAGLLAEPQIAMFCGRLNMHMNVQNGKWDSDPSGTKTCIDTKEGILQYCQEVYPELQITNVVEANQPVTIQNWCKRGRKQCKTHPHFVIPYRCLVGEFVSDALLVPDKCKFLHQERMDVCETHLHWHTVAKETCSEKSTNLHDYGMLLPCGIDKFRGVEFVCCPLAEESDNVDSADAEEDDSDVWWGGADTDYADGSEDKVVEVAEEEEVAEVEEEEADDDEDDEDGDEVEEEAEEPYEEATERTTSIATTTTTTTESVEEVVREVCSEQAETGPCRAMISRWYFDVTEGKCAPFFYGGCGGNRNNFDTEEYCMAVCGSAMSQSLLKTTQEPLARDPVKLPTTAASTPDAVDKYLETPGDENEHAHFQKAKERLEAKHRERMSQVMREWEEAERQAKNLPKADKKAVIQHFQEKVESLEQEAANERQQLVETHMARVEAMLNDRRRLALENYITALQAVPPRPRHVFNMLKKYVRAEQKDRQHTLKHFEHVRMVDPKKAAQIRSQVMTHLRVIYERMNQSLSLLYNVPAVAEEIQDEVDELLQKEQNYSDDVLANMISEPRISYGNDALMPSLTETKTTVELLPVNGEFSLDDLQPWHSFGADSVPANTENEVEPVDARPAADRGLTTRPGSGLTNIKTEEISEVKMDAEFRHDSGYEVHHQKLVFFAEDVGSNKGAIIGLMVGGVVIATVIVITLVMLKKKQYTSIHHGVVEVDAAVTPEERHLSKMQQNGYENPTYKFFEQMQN
Acetylcholinesterase (Torpedo californica), sequence (P04058 22-564 limits assumed): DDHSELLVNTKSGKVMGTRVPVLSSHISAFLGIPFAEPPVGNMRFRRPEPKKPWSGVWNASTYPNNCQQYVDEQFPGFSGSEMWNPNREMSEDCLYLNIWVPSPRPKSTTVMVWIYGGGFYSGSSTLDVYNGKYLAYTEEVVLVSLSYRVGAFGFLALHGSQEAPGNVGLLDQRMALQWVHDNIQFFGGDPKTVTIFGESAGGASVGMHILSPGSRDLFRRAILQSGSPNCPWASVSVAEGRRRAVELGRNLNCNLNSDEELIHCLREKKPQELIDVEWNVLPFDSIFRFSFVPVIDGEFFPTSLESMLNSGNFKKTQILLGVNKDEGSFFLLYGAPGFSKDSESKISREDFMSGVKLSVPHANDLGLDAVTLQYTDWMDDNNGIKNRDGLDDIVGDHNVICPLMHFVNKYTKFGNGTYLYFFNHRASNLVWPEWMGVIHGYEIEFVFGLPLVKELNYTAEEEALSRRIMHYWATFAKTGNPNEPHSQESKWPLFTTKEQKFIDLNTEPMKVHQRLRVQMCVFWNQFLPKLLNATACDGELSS
T3 sequence (P56817 whole entry): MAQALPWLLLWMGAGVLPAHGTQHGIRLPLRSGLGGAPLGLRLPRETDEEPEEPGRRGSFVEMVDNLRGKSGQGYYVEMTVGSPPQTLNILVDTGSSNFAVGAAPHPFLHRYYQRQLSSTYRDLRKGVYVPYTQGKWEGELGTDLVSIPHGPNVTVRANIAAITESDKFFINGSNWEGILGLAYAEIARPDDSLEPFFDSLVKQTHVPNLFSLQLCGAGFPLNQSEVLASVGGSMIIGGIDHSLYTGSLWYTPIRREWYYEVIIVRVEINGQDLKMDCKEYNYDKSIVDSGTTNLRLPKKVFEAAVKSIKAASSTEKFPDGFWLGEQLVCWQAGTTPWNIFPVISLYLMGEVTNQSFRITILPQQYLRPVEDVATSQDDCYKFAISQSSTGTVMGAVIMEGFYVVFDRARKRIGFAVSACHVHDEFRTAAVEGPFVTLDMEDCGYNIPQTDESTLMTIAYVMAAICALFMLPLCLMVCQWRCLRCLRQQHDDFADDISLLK
Cholinesterase, sequence (P06276 whole entry): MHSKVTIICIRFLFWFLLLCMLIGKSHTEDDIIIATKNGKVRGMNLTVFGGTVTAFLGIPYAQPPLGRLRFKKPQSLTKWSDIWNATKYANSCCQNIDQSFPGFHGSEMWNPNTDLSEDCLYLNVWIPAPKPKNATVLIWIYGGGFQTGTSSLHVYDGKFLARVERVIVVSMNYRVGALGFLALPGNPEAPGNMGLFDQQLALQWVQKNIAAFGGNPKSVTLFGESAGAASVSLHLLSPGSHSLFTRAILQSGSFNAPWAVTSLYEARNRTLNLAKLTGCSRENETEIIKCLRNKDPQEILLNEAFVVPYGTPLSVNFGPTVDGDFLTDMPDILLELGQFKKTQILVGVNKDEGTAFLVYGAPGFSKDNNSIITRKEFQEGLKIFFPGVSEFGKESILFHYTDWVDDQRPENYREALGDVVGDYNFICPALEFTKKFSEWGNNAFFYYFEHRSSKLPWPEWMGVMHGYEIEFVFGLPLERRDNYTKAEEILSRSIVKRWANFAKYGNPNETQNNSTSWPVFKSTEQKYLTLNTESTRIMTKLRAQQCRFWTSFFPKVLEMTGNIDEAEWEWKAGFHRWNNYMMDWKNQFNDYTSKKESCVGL
T1 sequence (P22303 whole entry): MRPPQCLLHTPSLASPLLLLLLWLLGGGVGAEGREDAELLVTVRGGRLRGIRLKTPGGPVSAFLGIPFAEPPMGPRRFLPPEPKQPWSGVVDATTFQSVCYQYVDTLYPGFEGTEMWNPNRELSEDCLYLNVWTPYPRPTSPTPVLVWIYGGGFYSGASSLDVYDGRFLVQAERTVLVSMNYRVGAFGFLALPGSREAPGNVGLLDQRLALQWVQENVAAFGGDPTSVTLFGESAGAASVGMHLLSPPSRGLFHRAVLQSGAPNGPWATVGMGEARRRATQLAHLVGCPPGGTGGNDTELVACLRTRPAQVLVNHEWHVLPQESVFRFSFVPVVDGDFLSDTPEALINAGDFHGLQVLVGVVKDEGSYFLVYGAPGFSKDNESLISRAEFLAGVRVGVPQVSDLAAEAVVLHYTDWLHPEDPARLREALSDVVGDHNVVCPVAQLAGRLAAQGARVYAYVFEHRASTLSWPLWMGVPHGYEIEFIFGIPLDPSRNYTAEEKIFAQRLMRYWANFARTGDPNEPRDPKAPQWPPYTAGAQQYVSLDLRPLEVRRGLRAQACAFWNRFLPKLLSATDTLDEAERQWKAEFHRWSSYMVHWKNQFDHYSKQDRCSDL
T4 sequence (P04058 whole entry): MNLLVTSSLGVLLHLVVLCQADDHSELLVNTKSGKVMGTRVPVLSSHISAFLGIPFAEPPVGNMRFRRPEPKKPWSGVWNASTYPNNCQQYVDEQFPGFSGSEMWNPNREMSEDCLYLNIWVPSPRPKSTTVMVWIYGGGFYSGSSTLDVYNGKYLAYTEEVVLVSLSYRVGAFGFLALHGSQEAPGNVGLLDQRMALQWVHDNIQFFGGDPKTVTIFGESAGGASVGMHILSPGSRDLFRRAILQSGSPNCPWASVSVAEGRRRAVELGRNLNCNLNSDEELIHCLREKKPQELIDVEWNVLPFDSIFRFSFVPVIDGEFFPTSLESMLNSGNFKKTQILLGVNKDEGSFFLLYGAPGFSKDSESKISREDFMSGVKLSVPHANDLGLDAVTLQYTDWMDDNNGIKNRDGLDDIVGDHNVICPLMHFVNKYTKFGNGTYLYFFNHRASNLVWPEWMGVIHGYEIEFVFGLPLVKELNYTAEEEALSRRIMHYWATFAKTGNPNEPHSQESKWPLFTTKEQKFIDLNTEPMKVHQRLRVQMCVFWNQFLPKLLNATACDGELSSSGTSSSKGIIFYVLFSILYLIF

| Structure (SMILES) | IC50 (Acetylcholinesterase [1]) | IC50 (Cholinesterase) | inhibition [2] | further results |
| --- | --- | --- | --- | --- |
| COc1cccc2cc(CN(CCCCCCNc3c4c(nc5ccccc35)CCC4)Cc3cc4cccc(OC)c4o3)oc12 | 7490 nM | 2.3 nM | 38.5% |  |
| O=C(NCCCCCCCNc1c2c(nc3ccccc13)CCCC2)c1cc2ccccc2o1 | 76.9 nM | 6.9 nM | 26.2% | Activity (SH-SY5Y): Toxic |
| O=C(NCCCCCCNc1c2c(nc3ccccc13)CCCC2)c1cc2ccccc2o1 | 424 nM | 4.68 nM | 13.7% |  |
| COc1cccc2cc(CN(CCCCCCNc3c4c(nc5ccccc35)CCCCC4)Cc3cc4cccc(OC)c4o3)oc12 | 1040 nM | 2.35 nM | 25% |  |
| c1ccc2oc(CN(CCCCCCCNc3c4c(nc5ccccc35)CCCCC4)Cc3cc4ccccc4o3)cc2c1 | 200 nM | 17.9 nM | 39.8% |  |
| COc1cccc2cc(CN(CCCCCCNc3c4c(nc5ccccc35)CCCC4)Cc3cc4cccc(OC)c4o3)oc12 | 260 nM | 0.48 nM | 44.6% | IC50 (Beta-secretase 1 [3]): 190 nM; Activity (SH-SY5Y): Toxic |
| c1ccc2oc(CN(CCCCCCCNc3c4c(nc5ccccc35)CCCC4)Cc3cc4ccccc4o3)cc2c1 | 117 nM | 6.86 nM | 44.5% | IC50 (Beta-secretase 1 [3]): 620 nM |
| COc1cccc2cc(CN(CCCCCCCNc3c4c(nc5ccccc35)CCCCC4)Cc3cc4cccc(OC)c4o3)oc12 | 199 nM | 4.87 nM | 37.3% |  |
| c1ccc2c(NCCCCCCCNc3c4c(nc5ccccc35)CCCC4)c3c(nc2c1)CCCC3 |  |  | 50.1% | IC50 [4]: 8400 nM |
| NC1=NC(c2ccc(F)cc2)NC(=O)N1 (stereo unspecified) |  |  |  | IC50 (Beta-secretase 1 [5]): 18000 nM |
| c1ccc2oc(CNCCCCCCCNc3c4c(nc5ccccc35)CCCC4)cc2c1 | 0.86 nM | 2.18 nM | 61.3% | Ki (Acetylcholinesterase [6]): 2.1 nM; Ki (Acetylcholinesterase [7]): 2.2 nM; Activity (Mus musculus [8]): 45.1 U/L; Kd (Acetylcholinesterase [9]): 0.031 s⁻¹; fold change (FC) (Mus musculus [10]): 1.22; Ka [11]: 1.45 ×10⁷ /M/s; Activity (Mus musculus [12]): 42 U/L; Activity (Mus musculus [13]): 114.7 U/L; Ki (Acetylcholinesterase [14]): 1.04 nM; inhibition [15]: Active; Ka [16]: 1.45 ×10⁷ /M/s; viability at 48 h, 30 µM (in vitro): 63%; Kd (Acetylcholinesterase [17]): 0.032 s⁻¹; Activity (Mus musculus [18]): 138.3 U/L; Activity (Mus musculus [19]): 134.5 U/L; inhibition [20]: Active; IC50 (Beta-secretase 1 [3]): 1350 nM; Activity (Mus musculus [21]): 48.2 U/L; Ki (Acetylcholinesterase [22]): 0.72 nM; fold change (FC) (Mus musculus [23]): 1.16 |
| COc1cccc2cc(CNCCCCCCNc3c4c(nc5ccccc35)CCC4)oc12 | 63.1 nM | 1.3 nM | 64.1% |  |
| c1ccc2oc(CNCCCCCCNc3c4c(nc5ccccc35)CCC4)cc2c1 | 47 nM | 2.48 nM | 9.3% |  |
| c1ccc2oc(CNCCCCCCCNc3c4c(nc5ccccc35)CCC4)cc2c1 | 10.8 nM | 2.54 nM | 76.2% |  |
| COc1cccc2cc(C(=O)NCCCCCCNc3c4c(nc5ccccc35)CCCCC4)oc12 | 32.3 nM | 30 nM | 18.7% |  |
| c1ccc2oc(CN(CCCCCCNc3c4c(nc5ccccc35)CCC4)Cc3cc4ccccc4o3)cc2c1 | 2070 nM | 8.89 nM | 62.2% |  |
| O=C(NCCCCCCNc1c2c(nc3ccccc13)CCCCC2)c1cc2ccccc2o1 | 308 nM | 10.8 nM | 24.2% |  |
| COc1cccc2cc(C(=O)NCCCCCCNc3c4c(nc5ccccc35)CCCC4)oc12 | 24.4 nM | 10.2 nM | 40.2% |  |
| O=C(NCCCCCCNc1c2c(nc3ccccc13)CCC2)c1cc2ccccc2o1 | 545 nM | 15.7 nM | 18.7% |  |
| COc1cccc2cc(C(=O)NCCCCCCNc3c4c(nc5ccccc35)CCC4)oc12 | 1680 nM | 80.6 nM | 32.6% |  |
| c1ccc2oc(CN(CCCCCCCNc3c4c(nc5ccccc35)CCC4)Cc3cc4ccccc4o3)cc2c1 | 222 nM | 12.8 nM | 30.7% |  |
| COc1cccc2cc(CNCCCCCCNc3c4c(nc5ccccc35)CCCC4)oc12 | 15.3 nM | 0.49 nM | 52% |  |
| O=C(NCCCCCCCNc1c2c(nc3ccccc13)CCCCC2)c1cc2ccccc2o1 | 323 nM | 11.6 nM | 17.3% |  |
| O=C(NCCCCCCCNc1c2c(nc3ccccc13)CCC2)c1cc2ccccc2o1 | 48.6 nM | 30.9 nM | 10.2% |  |
| COc1cccc2cc(C(=O)NCCCCCCCNc3c4c(nc5ccccc35)CCCCC4)oc12 | 416 nM | 31.9 nM | 17.7% |  |
| COc1cccc2cc(C(=O)NCCCCCCCNc3c4c(nc5ccccc35)CCCC4)oc12 | 44.2 nM | 7.35 nM | 42.5% | IC50 (Beta-secretase 1 [3]): 430 nM |
| COc1cccc2cc(CNCCCCCCCNc3c4c(nc5ccccc35)CCCCC4)oc12 | 2.56 nM | 1.23 nM | 31.9% |  |
| COc1cccc2cc(C(=O)NCCCCCCCNc3c4c(nc5ccccc35)CCC4)oc12 | 993 nM | 26.1 nM | 19.6% |  |
